The text below walks through data of patent publication US11542255B2, “Sulfonylureas and sulfonylthioureas as NLRP3 inhibitors” (Inflazome Limited, priority 2017, dated 2023).

The target of assay [1] is T1, NLRP3 (Homo sapiens, UniProt Q96P20). In words: Human whole blood IL1β release assay (LPS + nigericin, AlphaLisa IL-1β). In kind it is cell-based. On the set-up: Human whole blood in Li-heparin tubes was obtained from healthy donors from a volunteer donor panel; from tissue; host or cells: human whole blood from healthy donors. The note with it: NLRP3 inhibitory activity, 1 μg/ml LPS, 10 μM nigericin, IL-1β release, read-out: HWB IC50. The essentials:
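Donor human whole blood (Li-heparin) was primed with 1 μg/mL LPS while incubated with compound (8-point half-log, 10 μM top, 0.1% DMSO) for 3 h at 37° C., then stimulated with 10 μM nigericin for 1 h. Supernatant IL-1β measured by AlphaLISA; IC50 from 4-parameter nonlinear fit.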
Background: In Alpha technology, singlet oxygen from a donor bead excites a nearby acceptor bead.

Assay [2] addresses T1, NLRP3. Put plainly: THP-1 cells pyroptosis assay (LPS + nigericin, resazurin readout). It is filed as cell-based. Also noted: Seed THP-1 cells (25,000 cells/well) containing 1.0 μg/ml LPS in 40 μl of RPMI medium; host or cells: THP-1 cells. Particulars: NLRP3 inhibitory activity, 1.0 μg/ml LPS, 5 μM nigericin. The essentials: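 LPS-primed (1 μg/ml) THP-1 cells, 25,000/well in serum-free RPMI, given compound (8-point half-log, 10 μM top; 0.1% DMSO) for 3 h at 37 °C, then nigericin 5 μM for 1 h. Viability by resazurin (100 μM, 1-2 h), Ex 560/Em 590 nm; IC50 from 4-parameter variable-slope fit.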

Structures can show the parent of a compound that is named as a salt.

T1 sequence (Q96P20 whole entry): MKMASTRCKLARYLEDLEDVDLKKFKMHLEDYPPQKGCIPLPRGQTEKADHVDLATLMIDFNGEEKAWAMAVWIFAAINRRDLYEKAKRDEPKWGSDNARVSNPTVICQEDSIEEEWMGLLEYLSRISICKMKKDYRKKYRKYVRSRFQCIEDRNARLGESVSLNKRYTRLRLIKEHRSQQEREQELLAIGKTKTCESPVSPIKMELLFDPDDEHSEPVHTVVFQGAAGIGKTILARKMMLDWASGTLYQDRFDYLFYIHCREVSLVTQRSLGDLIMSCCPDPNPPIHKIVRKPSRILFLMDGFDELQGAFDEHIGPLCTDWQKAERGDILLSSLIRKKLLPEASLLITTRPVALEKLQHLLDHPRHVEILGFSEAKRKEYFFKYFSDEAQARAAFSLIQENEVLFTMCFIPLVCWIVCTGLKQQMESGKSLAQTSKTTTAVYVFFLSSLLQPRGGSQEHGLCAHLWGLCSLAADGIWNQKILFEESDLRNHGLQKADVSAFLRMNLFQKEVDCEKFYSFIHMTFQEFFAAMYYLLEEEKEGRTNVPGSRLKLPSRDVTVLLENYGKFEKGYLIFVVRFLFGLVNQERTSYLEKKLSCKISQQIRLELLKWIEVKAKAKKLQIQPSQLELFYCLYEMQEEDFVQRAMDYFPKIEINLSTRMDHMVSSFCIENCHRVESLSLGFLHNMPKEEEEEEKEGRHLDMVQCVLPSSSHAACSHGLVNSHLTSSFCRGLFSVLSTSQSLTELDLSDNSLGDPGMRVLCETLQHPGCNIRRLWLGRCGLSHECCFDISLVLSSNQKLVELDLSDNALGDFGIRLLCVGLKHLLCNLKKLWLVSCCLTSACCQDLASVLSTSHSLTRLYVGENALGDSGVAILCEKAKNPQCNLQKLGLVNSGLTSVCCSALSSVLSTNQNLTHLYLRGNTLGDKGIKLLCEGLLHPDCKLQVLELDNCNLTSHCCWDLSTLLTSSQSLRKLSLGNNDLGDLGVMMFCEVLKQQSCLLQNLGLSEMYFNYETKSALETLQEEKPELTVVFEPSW

For the compound `CC(C)n1nc(S(=O)(=O)NC(=O)Nc2c3c(cc4c2CCC4)CCC3)cc1CN(C)CCF` [Example 57, 5-(((2-Fluoroethyl)(methyl)amino)methyl)-N-((1,2,3,5,6,7-hexahydro-s-indacen-4-yl)carbamoyl)-1-isopropyl-1H-pyrazole-3-sulfonamide, Sodium Salt], the IC50 (in general, the concentration that gives 50% inhibition) in assay [1] is 1600 to 3200 nM; in assay [2] it was below 40 nM.

Take `CN(C)C1(c2cc(S(=O)(=O)NC(=O)Nc3c4c(cc5c3CCC5)CCC4)nn2C)CC1` [Example 58, 5-(1-(Dimethylamino)cyclopropyl)-N-((1,2,3,5,6,7-hexahydro-s-indacen-4-yl)carbamoyl)-1-methyl-1H-pyrazole-3-sulfonamide, Sodium Salt]: the results for the concentration for half-maximal inhibition (IC50) in assay [1] and in assay [2] were 800 to 1600 nM and 40 to 160 nM, respectively.

With `CN(C)CCc1cc(S(=O)(=O)NC(=O)Nc2c3c(cc4c2CCC4)CCC3)nn1C` [Example 59, 5-(2-(Dimethylamino)ethyl)-N-((1,2,3,5,6,7-hexahydro-s-indacen-4-yl)carbamoyl)-1-methyl-1H-pyrazole-3-sulfonamide], the IC50 lay in the range of 800 to 1600 nM in assay [1] and 160 to 640 nM in assay [2].

Take `CN(C)C1CCCn2nc(S(=O)(=O)NC(=O)Nc3c4c(cc5c3CCC5)CCC4)cc21` (centres unmarked) [Example 60, 4-(Dimethylamino)-N-((1,2,3,5,6,7-hexahydro-s-indacen-4-yl)carbamoyl)-4,5,6,7-tetrahydropyrazolo[1,5-a]pyridine-2-sulfonamide]: the IC50 in assay [1] is 400 to 800 nM; in assay [2] it was below 40 nM.

Regarding `CCC(c1cc(S(=O)(=O)NC(=O)Nc2c(C(C)C)cc(F)cc2C(C)C)nn1C(C)C)N(C)C` (centres unmarked) [Example 62, 5-(1-(Dimethylamino)propyl)-N-((4-fluoro-2,6-diisopropylphenyl)carbamoyl)-1-isopropyl-1H-pyrazole-3-sulfonamide], the 50% inhibitory concentration (IC50) lay within 400 to 800 nM in assay [1] and 160 to 640 nM in assay [2].

Consider `CCC(c1cc(S(=O)(=O)NC(=O)Nc2c(C(C)C)cc(Cl)cc2C(C)C)nn1C)N(C)C` (centres unmarked) [Example 64, N-((4-Chloro-2,6-diisopropylphenyl)carbamoyl)-5-(1-(dimethylamino)propyl)-1-methyl-1H-pyrazole-3-sulfonamide], for which the half-maximal inhibitory concentration (IC50) in assay [1] is 800 to 1600 nM; in assay [2], below 40 nM.

Consider `CCC(c1cc(S(=O)(=O)NC(=O)Nc2c(C(C)C)cc(F)cc2C(C)C)nn1C)N(C)C` (centres unmarked) [Example 65, 5-(1-(Dimethylamino)propyl)-N-((4-fluoro-2,6-diisopropylphenyl)carbamoyl)-1-methyl-1H-pyrazole-3-sulfonamide], for which the concentration for half-maximal inhibition (IC50) is below 400 nM in assay [1] and below 40 nM in assay [2].

As to `CC(C)c1cc(F)cc(-c2ccccc2)c1NC(=O)NS(=O)(=O)c1cc(CN(C)C)n(C)n1` [Example 66, 5-((Dimethylamino)methyl)-N-((5-fluoro-3-isopropyl-[1,1′-biphenyl]-2-yl)carbamoyl)-1-methyl-1H-pyrazole-3-sulfonamide], the IC50 is 400 to 800 nM in assay [1] and 160 to 640 nM in assay [2].

Consider `CNCc1cc(S(=O)(=O)NC(=O)Nc2c3c(cc4c2CCC4)CCC3)nn1C` [Example 67, N-((1,2,3,5,6,7-Hexahydro-s-indacen-4-yl)carbamoyl)-1-methyl-5-((methylamino)methyl)-1H-pyrazole-3-sulfonamide], for which the figures for the IC50 in assay [1] and in assay [2] were 400 to 800 nM and 40 to 160 nM, respectively.

As to `CC(C)n1nc(S(=O)(=O)NC(=O)Nc2c3c(cc4c2CCC4)CCC3)cc1CN(C)C` [Example 68, 5-((Dimethylamino)methyl)-N-((1,2,3,5,6,7-hexahydro-s-indacen-4-yl)carbamoyl)-1-isopropyl-1H-pyrazole-3-sulfonamide], the half-inhibitory concentration (IC50) in assay [1] is 400 to 800 nM; in assay [2] it was below 40 nM.

Turning to `CCC(c1cc(S(=O)(=O)NC(=O)Nc2c3c(cc4c2CCC4)CCC3)nn1C)N(C)C` (centres unmarked) [Example 74, 5-(1-(Dimethylamino)propyl)-N-((1,2,3,5,6,7-hexahydro-s-indacen-4-yl)carbamoyl)-1-methyl-1H-pyrazole-3-sulfonamide], the figures for the IC50 in assay [1] and in assay [2] were below 400 nM and below 40 nM, respectively.

Take `CN1CC(O)(c2cc(S(=O)(=O)NC(=O)Nc3c4c(cc5c3CCC5)CCC4)nn2C)C1` [Example 75, N-((1,2,3,5,6,7-Hexahydro-s-indacen-4-yl)carbamoyl)-5-(3-hydroxy-1-methylazetidin-3-yl)-1-methyl-1H-pyrazole-3-sulfonamide]: the figures for the IC50 in assay [1] and in assay [2] were 800 to 1600 nM and 160 to 640 nM, respectively.

For `Cn1nc(S(=O)(=O)NC(=O)Nc2c3c(cc4c2CCC4)CCC3)cc1CN1CCCC1` [Example 78, N-((1,2,3,5,6,7-Hexahydro-s-indacen-4-yl)carbamoyl)-1-methyl-5-(pyrrolidin-1-ylmethyl)-1H-pyrazole-3-sulfonamide, Sodium Salt], the IC50 lay in the range of 400 to 800 nM in assay [1] and 40 to 160 nM in assay [2].

Take `CC(C)c1cc(F)cc(C(C)C)c1NC(=O)NS(=O)(=O)c1cc(CN2CC(F)C2)n(C)n1` [Example 79, N-((4-Fluoro-2,6-diisopropylphenyl)carbamoyl)-5-((3-fluoroazetidin-1-yl)methyl)-1-methyl-1H-pyrazole-3-sulfonamide]: the 50% inhibitory concentration (IC50) in assay [1] was in the range of 800 to 1600 nM; in assay [2] it was 640 to 2560 nM.

Turning to `Cn1nc(S(=O)(=O)NC(=O)Nc2c3c(cc4c2CCC4)CCC3)cc1CN1CC(F)C1` [Example 80, 5-((3-Fluoroazetidin-1-yl)methyl)-N-((1,2,3,5,6,7-hexahydro-s-indacen-4-yl)carbamoyl)-1-methyl-1H-pyrazole-3-sulfonamide], the IC50 lay in the range of 1600 to 3200 nM in assay [1] and 160 to 640 nM in assay [2].

Take `CC(C)c1cc(F)cc(C(C)C)c1NC(=O)NS(=O)(=O)c1cc(CN2CCCC2)n(C)n1` [Example 81, N-((4-Fluoro-2,6-diisopropylphenyl)carbamoyl)-1-methyl-5-(pyrrolidin-1-ylmethyl)-1H-pyrazole-3-sulfonamide]: the values for the half-maximal inhibitory concentration (IC50) in assay [1] and in assay [2] were below 400 nM and 160 to 640 nM, respectively.

For the compound `CCN(CC)Cc1cc(S(=O)(=O)NC(=O)Nc2c3c(cc4c2CCC4)CCC3)nn1C` [Example 82, 5-((Diethylamino)methyl)-N-((1,2,3,5,6,7-hexahydro-s-indacen-4-yl)carbamoyl)-1-methyl-1H-pyrazole-3-sulfonamide, Sodium Salt], the half-inhibitory concentration (IC50) in assay [1] lay in the range of 800 to 1600 nM; in assay [2], 40 to 160 nM.

Consider `CCN(CC)Cc1cc(S(=O)(=O)NC(=O)Nc2c(C(C)C)cc(F)cc2C(C)C)nn1C` [Example 83, 5-((Diethylamino)methyl)-N-((4-fluoro-2,6-diisopropylphenyl)carbamoyl)-1-methyl-1H-pyrazole-3-sulfonamide, sodium Salt], for which the IC50 in assay [1] lay within 400 to 800 nM; in assay [2], 640 to 2560 nM.

Turning to `CC(C)c1cc(F)cc(C(C)C)c1NC(=O)NS(=O)(=O)c1cc(CN(C)C(C)C)n(C)n1` [Example 90, N-((4-Fluoro-2,6-diisopropylphenyl)carbamoyl)-5-((isopropyl(methyl)amino)methyl)-1-methyl-1H-pyrazole-3-sulfonamide, sodium Salt], the figures for the IC50 in assay [1] and in assay [2] were below 400 nM and 160 to 640 nM, respectively.

`CN(C)C(c1cc(S(=O)(=O)NC(=O)Nc2c3c(cc4c2CCC4)CCC3)nn1C)C(F)(F)F` (centres unmarked) [Example 95, 5-(˜(Dimethylamino)-2,2,2-trifluoroethyl)-N-((1,2,3,5,6,7-hexahydro-s-indacen-4-yl)carbamoyl)-1-methyl-1H-pyrazole-3-sulfonamide]: the IC50 was 800 to 1600 nM in assay [1] and below 40 nM in assay [2].

Take `CC(C)n1nc(S(=O)(=O)NC(=O)Nc2c3c(cc4c2CCC4)CCC3)cc1CN(C)CC(F)(F)F` [Example 96, N-((1,2,3,5,6,7-Hexahydro-s-indacen-4-yl)carbamoyl)-1-isopropyl-5-((methyl(2,2,2-trifluoroethyl)amino)methyl)-1H-pyrazole-3-sulfonamide]: the results for the 50% inhibitory concentration (IC50) in assay [1] and in assay [2] were 3200 to 10000 nM and 40 to 160 nM, respectively.

In the case of `COCCN(CCO)C(=O)c1cc(S(=O)(=O)NC(=O)Nc2c3c(cc4c2CCC4)CCC3)nn1C` [Example 102, 3-(N-((1,2,3,5,6,7-Hexahydro-s-indacen-4-yl)carbamoyl)sulfamoyl)-N-(2-hydroxyethyl)-N-(2-methoxyethyl)-1-methyl-1H-pyrazole-5-carboxamide, Partial ammonium Salt], the IC50 lay in the range of 400 to 800 nM in assay [1] and 40 to 160 nM in assay [2].

With `CN(C)C1(c2cc(S(=O)(=O)NC(=O)Nc3c4c(cc5c3CCC5)CCC4)nn2C)COC1` [Example 115, 5-(3-(Dimethylamino)oxetan-3-yl)-N-((1,2,3,5,6,7-hexahydro-s-indacen-4-yl)carbamoyl)-1-methyl-1H-pyrazole-3-sulfonamide], the figures for the IC50 in assay [1] and in assay [2] were 800 to 1600 nM and 160 to 640 nM, respectively.

For the compound `CC(C)c1cc(F)cc(C(C)C)c1NC(=O)NS(=O)(=O)c1cc(CN(C)CCO)n(C)n1` [Example 116, N-((4-Fluoro-2,6-diisopropylphenyl)carbamoyl)-5-(((2-hydroxyethyl)(methyl)amino)methyl)-1-methyl-1H-pyrazole-3-sulfonamide], the figures for the IC50 in assay [1] and in assay [2] were below 400 nM and 160 to 640 nM, respectively.

Turning to `CN(CCO)Cc1cc(S(=O)(=O)NC(=O)Nc2c3c(cc4c2CCC4)CCC3)nn1C` [Example 117, N-((1,2,3,5,6,7-Hexahydro-s-indacen-4-yl)carbamoyl)-5-(((2-hydroxyethyl)(methyl)amino)methyl)-1-methyl-1H-pyrazole-3-sulfonamide], the IC50 in assay [1] is below 400 nM; in assay [2], 40 to 160 nM.
